Data as given in paper PMC5707495, “Systematic re-evaluation of the bis(2-hydroxyethyl)disulfide (HEDS) assay reveals an alternative mechanism and activity of glutaredoxins” (Chemical Science, 2015).

How the values were obtained:
ScGrx7 = biological target: T1, ScGrx7 (Saccharomyces cerevisiae, UniProt P38068); test: HEDS assay coupled to glutathione reductase, NADPH […] nm; Km replot and Dixon plot; format: biochemical
T1 construct: gene GRX7; recombinant, N-terminal MRGS(H)6 tag kept, altered stop codon; E. coli XL1-Blue; non-covalent dimer; monothiol, one Cys per subunit
T1 sequence (P38068 37-203 limits assumed): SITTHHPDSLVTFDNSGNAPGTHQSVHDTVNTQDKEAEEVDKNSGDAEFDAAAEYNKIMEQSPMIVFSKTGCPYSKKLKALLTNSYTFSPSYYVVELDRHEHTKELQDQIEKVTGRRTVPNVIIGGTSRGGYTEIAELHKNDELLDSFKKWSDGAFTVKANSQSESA

PfGrx = biological target: T2, PfGrx (Plasmodium falciparum, UniProt Q9NLB2); test: HEDS assay coupled to glutathione reductase, NADPH […] nm; format: biochemical; details: co-substrate GSH; sequential kinetics; pH 8.0, 25 °C
T2 construct: gene PF3D7_0306300; dithiol Grx with Cys29 and Cys32 (CPYC motif) and Cys88 (GGC motif)
T2 sequence (Q9NLB2 1-111): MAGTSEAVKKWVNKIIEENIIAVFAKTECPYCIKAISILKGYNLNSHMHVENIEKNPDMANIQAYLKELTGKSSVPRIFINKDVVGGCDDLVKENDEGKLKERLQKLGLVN

Ki (ScGrx7) | SMILES | HEDS assay coupled to glutathione reductase, NADPH 340 nm (PfGrx)
180 µM | OCCS [2-ME] | 
 | OCCSSCCO [HEDS, bis(2-hydroxyethyl)disulfide] | HEDS assays with PfGrx yielded sequential kinetic patterns
